Measurements taken from patent US20180042929A1, “USE OF SUBSTITUTED 2,3-DIHYDROIMIDAZO[1,2-C]QUINAZOLINES” (Bayer Pharma Aktiengesellschaft, priority 2015, published 2018).

Tests used:
[1] = tested on: HEC-1B xenograft tumor model; assay type: in vivo; settings: 10 mg/kg Q14D i.p.
Protocol: The in vivo efficacy was evaluated in tumor xenograft models in nude mice with established human tumor cell lines at the MTD and sub-MTD dosages. Tumor cells were cultivated according to ATCC protocols in recommended media contained 10% FCS. Cells were harvested for transplantation in a subconfluent (70%) state. The volume of implantation was 100 μl for mice. When the tumors were approximately in size of 25-50 mm^2, the animals were randomized to treatment and control groups and treatment was started. Treatment of each animal was based on individual body weight. The optimal formulation, application route and schedule were used for each compound (see table 2). Oral administration (p.o.) was carried out via a gastric tube. The oral application volumes were 10 ml/kg and the intravenous application volumes were 10 ml/kg. Tumor area (product of the longest diameter and its perpendicular) using a calliper. The animal body weight was monitored as a measure for treatment-related toxicity. Measurement of tumor area and body weight was performed 2-3 times weekly. […] Treatment responses were evaluated by means of the clinically-used RECIST criteria (complete response, partial response, stable disease and progressive disease) and response rates were calculated accordingly (RR=number of animals with complete and partial response).

[2] = tested on: MFE-280 xenograft tumor model; assay: In vivo efficacy in MFE-280 xenograft tumor model; parameters: species or system nude mice; settings: doxorubicin group
Protocol: The in vivo efficacy was evaluated in tumor xenograft models in nude mice with established human tumor cell lines at the MTD and sub-MTD dosages. Tumor cells were cultivated according to ATCC protocols in recommended media contained 10% FCS. Cells were harvested for transplantation in a subconfluent (70%) state. The volume of implantation was 100 μl for mice. When the tumors were approximately in size of 25-50 mm^2, the animals were randomized to treatment and control groups and treatment was started. Treatment of each animal was based on individual body weight. The optimal formulation, application route and schedule were used for each compound (see table 2). Oral administration (p.o.) was carried out via a gastric tube. The oral application volumes were 10 ml/kg and the intravenous application volumes were 10 ml/kg. Tumor area (product of the longest diameter and its perpendicular) using a calliper. The animal body weight was monitored as a measure for treatment-related toxicity. Measurement of tumor area and body weight was performed 2-3 times weekly. T/C ratios (Treatment/Control) were calculated with final tumor areas. Treatment responses were evaluated by means of the clinically-used RECIST criteria (complete response, partial response, stable disease and progressive disease) and response rates were calculated accordingly (RR=number of animals with complete and partial response).

[3] = dose not printed (i.p. Q14D per Table 2)

With `COc1cccc2c1C(=O)c1c(O)c3c(c(O)c1C2=O)C[C@@](O)(C(=O)CO)C[C@@H]3O[C@H]1C[C@H](N)[C@H](O)[C@H](C)O1` [Doxorubicin] the “PD (progressive disease, number of tumors)” value [1] was 6, the Response rate [1] was 0% and the “T/C area (Treatment/Control ratio, mean tumor areas)” value ([1]; study end) was 0.56. For the same compound, the “T/C weight (Treatment/Control ratio, final tumor weights)” value ([1]; study end) was 0.48, the “CR (%)” value ([2]; dose not given) was 0% and the “PD (%)” value ([2]; dose not given) was 37.5%. For the same compound, the “PR (%)” value ([2]; dose not given) was 12.5%, the “RR (%)” value ([2]; dose not given) was 12.5% and the “T/C (tumor area)” value [2, 3] was 0.51. The “T/C (tumor weight)” value [2, 3] was 0.39.
